From ChEMBL document CHEMBL1201862, “PubChem BioAssay data set” (2004)
The source made the active and inactive calls.

Key:
[1] = LGR2 antagonists, dose response, cell-based, HEK293, CRE-luciferase reporter, cherry pick, set 2 (AID 743343); type: functional;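 note: transfected cells were stimulated with diluted bursicon conditioned medium after compound addition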
[2] = A549 cell cytotoxicity, dose response, cytotoxicity control, plate reader, cherry-pick, antagonist series (AID 743412); type: functional, cell-based
[3] = microbe, parasite or virus in culture; type: functional; settings: Mycobacterium tuberculosis
[4] = HepG2 cell cytotoxicity, dose response, cytotoxicity control, plate reader, cherry-pick, antagonist series (AID 743416); type: functional, cell-based
[5] = Shn3 3'UTR reporter inhibitors, dose response, cell-based, Clone20 osteoblasts, firefly luciferase, cherry-picked (AID 624132); type: functional;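 note: firefly luciferase luminescence from reporter carrying the Shn3 3'UTR in osteoblasts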
[6] = MC4R antagonists, dose response, counter-screen for LGR2 antagonist project, cell-based, plate reader, cherry pick (AID 743444); type: functional;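 note: transfected HEK 293 cells stimulated with alpha-MSH peptide; potency of inhibitors of the alpha-MSH evoked signal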
[7] = HepG2 cell cytotoxicity, dose response, cytotoxicity control for Shn3 inhibitor project, CellTiter-Glo, cherry-picked (AID 624134); type: functional, cell-based
[8] = HEK293 cell cytotoxicity, dose response, cytotoxicity control, plate reader, cherry-picked samples (AID 743446); type: functional, cell-based
[9] = nonselective inhibitors of cellular cAMP signaling, dose response, counter-screen for MC4R biased antagonist project, cell-based, TR-FRET cAMP detection (AID 602305); type: functional;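 note: U2OS cells stimulated with forskolin near its EC80 as the cAMP inducer; potency is for inhibition of forskolin-stimulated cAMP signaling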
[10] = growth suppression of PTEN-null colon cells, dose response, cell-based, HCT116 PTEN knockout (AID 1047); type: functional;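 note: HCT116 colon tumor cells with PTEN knocked out; cells exposed to compound for 60 hours before readout; potency for loss of cell viability measured by luminescence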
[11] = cytotoxicity in HEK-293T cells, dose response, cytotoxicity control for BCR NF-kB inhibitor project, luminescence, B-cell screen hits (AID 489021); type: functional, cell-based;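 note: HEK-293T cells carrying an NF-kB luciferase reporter; cells exposed to compound for about 14 hours before viability readout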
[12] = growth suppression of beta-catenin-knockout colon cells, dose response, cell-based, HCT116, human colon tumor (AID 1045); type: functional;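 note: HCT116 colon tumor cells with beta catenin knocked out; cells exposed to compound for 60 hours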
Melanocortin receptor 4 = Melanocortin receptor 4 (Homo sapiens, UniProt P32245); assay: MC4R antagonist potency on cAMP, dose response, cell-based, TR-FRET, biased antagonists (AID 602298); type: functional;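 note: antagonist potency against agonist-stimulated cAMP production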
[13] = control 3'UTR Renilla luciferase suppression, dose response, counter-screen for Shn3 inhibitor project, cell-based, Clone20-Shn3RL, cherry-picked (AID 624133); type: functional
[14] = target: Multidrug resistance protein CDR2 (Candida albicans (strain SC5314 / ATCC MYA-2876) (Yeast), UniProt P78595); assay: CaCDR2 efflux pump inhibitors in yeast, dose response, S. cerevisiae AD1-8u, singleplex, Cherry Pick1 hits (AID 588604); type: functional
[15] = target: T1, DNA dC->dU-editing enzyme APOBEC-3G (Homo sapiens, UniProt Q9HC16); assay: SAR analysis of small molecule inhibitors of APOBEC3G DNA Deaminase via a fluorescence-based single-stranded DNA deaminase assay - Set 2.; type: functional; settings: read-out: IC50_Mean
[16] = target: T1, DNA dC->dU-editing enzyme APOBEC-3G; type: functional
[17] = target: T1, DNA dC->dU-editing enzyme APOBEC-3G; assay: APOBEC3G deaminase inhibitors, SAR follow-up, biochemical, fluorescence, single-stranded DNA substrate (AID 602136); type: functional; settings: read-out: IC50_Mean
[18] = target: T2, DNA dC->dU-editing enzyme APOBEC-3A (Homo sapiens, UniProt P31941); assay: SAR analysis of small molecule inhibitors of APOBEC3A DNA Deaminase via a fluorescence-based single-stranded DNA deaminase assay.; type: functional; settings: read-out: IC50_Mean
[19] = target: T2, DNA dC->dU-editing enzyme APOBEC-3A; assay: SAR analysis of small molecule inhibitors of APOBEC3A DNA Deaminase via a fluorescence-based single-stranded DNA deaminase assay - Set 2.; type: functional; settings: read-out: IC50_Mean
[20] = target: T2, DNA dC->dU-editing enzyme APOBEC-3A; assay: Dose Response confirmation of small molecule APOBEC3A DNA Deaminase Inhibitors via a fluorescence-based single-stranded DNA deaminase assay. [Related pubchem assays (depositor defined):AID493011, AID493024]; type: functional
[21] = target: Sphingosine 1-phosphate receptor 2 (Homo sapiens, UniProt O95136); assay: Late-stage fluorescence-based dose-response cell-based counterscreen assay to identify agonists of the Sphingosine 1-Phosphate Receptor 3 (S1P3): Sphingosine 1-Phosphate Receptor 2 (S1P2) agonist assay.; type: functional
[22] = target: Sphingosine 1-phosphate receptor 4 (Homo sapiens, UniProt O95977); assay: Late-stage fluorescence-based dose-response cell-based counterscreen assay to identify agonists of the Sphingosine 1-Phosphate Receptor 3 (S1P3): Sphingosine 1-Phosphate Receptor 4 (S1P4) agonist assay.; type: functional
[23] = target: Dual specificity tyrosine-phosphorylation-regulated kinase 1B (Homo sapiens, UniProt Q9Y463); assay: Navigating the Kinome. Panel member name: DYRK1B; type: functional
[24] = target: Mitogen-activated protein kinase 8 (Homo sapiens, UniProt P45983); type: functional;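 note: value comes from one member of a kinome-wide kinase profiling panel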
[25] = target: Dual specificity tyrosine-phosphorylation-regulated kinase 1A (Homo sapiens, UniProt Q13627); type: functional;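 note: measured against DYRK1A as one member of a broad kinome profiling panel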
[26] = target: Dual specificity protein kinase CLK4 (Homo sapiens, UniProt Q9HAZ1); type: functional
Sequence of Dual specificity protein kinase CLK4 (Q9HAZ1 whole entry): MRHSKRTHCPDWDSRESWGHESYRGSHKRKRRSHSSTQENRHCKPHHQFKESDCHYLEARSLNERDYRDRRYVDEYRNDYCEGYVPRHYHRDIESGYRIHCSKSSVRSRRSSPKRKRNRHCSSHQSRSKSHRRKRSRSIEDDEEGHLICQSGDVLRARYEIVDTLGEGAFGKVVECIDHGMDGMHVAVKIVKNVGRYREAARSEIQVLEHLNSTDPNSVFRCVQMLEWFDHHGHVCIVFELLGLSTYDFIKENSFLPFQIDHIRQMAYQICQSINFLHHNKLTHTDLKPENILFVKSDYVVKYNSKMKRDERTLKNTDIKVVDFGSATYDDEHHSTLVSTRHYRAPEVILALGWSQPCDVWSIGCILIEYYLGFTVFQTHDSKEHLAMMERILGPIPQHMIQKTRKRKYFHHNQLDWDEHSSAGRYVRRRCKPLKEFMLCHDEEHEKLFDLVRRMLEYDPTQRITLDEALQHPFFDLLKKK

T2 sequence (P31941 whole entry): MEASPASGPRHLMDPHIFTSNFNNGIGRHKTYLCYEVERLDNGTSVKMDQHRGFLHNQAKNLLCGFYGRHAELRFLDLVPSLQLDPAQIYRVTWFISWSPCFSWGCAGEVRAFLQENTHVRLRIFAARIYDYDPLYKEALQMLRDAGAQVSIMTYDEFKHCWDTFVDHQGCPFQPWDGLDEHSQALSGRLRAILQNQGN
T1 sequence (Q9HC16 whole entry): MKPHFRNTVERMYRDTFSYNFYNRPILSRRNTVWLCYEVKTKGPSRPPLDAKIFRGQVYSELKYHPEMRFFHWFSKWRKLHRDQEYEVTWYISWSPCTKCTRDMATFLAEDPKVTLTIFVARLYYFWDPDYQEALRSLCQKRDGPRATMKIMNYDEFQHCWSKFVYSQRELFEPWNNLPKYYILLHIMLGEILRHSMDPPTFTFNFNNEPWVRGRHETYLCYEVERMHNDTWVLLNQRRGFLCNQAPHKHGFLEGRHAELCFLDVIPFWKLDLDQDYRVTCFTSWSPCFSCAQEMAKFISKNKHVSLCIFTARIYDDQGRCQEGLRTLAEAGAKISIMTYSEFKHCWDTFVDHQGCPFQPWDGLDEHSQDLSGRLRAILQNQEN
Sequence of Sphingosine 1-phosphate receptor 2 (O95136 whole entry): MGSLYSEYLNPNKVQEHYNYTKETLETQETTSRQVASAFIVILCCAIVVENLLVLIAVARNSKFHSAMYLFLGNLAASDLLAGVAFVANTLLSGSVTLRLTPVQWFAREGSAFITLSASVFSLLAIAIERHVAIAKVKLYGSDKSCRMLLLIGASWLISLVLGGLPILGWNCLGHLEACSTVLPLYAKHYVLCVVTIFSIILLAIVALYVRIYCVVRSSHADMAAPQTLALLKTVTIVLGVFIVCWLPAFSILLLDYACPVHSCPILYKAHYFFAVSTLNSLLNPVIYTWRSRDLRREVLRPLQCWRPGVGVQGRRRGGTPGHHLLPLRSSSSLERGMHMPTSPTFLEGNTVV
Sequence of Sphingosine 1-phosphate receptor 4 (O95977 whole entry): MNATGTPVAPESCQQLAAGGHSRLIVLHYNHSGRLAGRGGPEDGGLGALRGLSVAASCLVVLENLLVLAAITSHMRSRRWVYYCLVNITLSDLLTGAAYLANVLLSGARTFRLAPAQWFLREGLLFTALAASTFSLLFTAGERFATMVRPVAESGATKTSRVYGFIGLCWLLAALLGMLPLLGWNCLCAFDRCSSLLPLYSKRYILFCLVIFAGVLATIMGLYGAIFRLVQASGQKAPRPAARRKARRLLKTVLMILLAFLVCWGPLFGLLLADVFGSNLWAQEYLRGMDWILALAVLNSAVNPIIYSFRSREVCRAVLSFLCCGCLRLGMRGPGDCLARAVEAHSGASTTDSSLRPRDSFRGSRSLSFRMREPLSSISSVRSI
Sequence of Multidrug resistance protein CDR2 (P78595 whole entry): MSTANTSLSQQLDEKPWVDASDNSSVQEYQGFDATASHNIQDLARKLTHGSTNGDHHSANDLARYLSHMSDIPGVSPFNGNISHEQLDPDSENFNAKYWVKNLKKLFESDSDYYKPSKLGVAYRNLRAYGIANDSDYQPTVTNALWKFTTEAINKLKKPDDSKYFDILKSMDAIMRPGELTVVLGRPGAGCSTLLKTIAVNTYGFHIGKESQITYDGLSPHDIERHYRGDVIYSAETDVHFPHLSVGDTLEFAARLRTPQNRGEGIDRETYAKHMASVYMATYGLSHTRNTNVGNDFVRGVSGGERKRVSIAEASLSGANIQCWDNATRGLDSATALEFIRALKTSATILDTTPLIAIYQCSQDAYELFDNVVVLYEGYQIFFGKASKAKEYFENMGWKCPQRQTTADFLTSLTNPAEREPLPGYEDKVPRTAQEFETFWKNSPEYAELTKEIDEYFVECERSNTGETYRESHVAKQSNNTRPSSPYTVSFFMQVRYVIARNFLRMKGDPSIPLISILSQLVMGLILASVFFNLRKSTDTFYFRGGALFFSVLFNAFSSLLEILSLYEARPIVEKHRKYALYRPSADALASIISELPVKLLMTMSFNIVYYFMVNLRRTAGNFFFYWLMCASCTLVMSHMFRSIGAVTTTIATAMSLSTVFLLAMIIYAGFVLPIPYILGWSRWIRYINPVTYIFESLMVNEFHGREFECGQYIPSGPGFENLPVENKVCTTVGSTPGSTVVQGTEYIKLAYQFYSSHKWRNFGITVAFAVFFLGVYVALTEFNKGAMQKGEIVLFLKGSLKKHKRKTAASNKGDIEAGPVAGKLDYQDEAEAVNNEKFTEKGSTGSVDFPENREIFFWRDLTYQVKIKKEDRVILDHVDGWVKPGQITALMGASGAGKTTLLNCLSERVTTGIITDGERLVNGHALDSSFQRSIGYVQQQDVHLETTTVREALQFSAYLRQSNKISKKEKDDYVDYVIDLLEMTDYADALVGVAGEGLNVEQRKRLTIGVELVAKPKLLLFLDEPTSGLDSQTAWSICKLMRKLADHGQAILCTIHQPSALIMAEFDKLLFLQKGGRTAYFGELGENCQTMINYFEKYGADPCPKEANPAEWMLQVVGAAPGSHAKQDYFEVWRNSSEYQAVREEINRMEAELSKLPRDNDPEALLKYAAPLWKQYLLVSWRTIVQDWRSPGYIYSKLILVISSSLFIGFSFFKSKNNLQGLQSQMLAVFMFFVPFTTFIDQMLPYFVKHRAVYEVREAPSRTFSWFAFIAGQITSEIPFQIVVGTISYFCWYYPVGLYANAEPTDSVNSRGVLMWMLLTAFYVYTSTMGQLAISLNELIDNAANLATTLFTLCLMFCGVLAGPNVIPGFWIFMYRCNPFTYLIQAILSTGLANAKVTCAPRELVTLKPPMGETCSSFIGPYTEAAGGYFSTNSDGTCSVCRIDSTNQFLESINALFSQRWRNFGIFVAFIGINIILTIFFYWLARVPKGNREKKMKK
Sequence of Dual specificity tyrosine-phosphorylation-regulated kinase 1B (Q9Y463 whole entry): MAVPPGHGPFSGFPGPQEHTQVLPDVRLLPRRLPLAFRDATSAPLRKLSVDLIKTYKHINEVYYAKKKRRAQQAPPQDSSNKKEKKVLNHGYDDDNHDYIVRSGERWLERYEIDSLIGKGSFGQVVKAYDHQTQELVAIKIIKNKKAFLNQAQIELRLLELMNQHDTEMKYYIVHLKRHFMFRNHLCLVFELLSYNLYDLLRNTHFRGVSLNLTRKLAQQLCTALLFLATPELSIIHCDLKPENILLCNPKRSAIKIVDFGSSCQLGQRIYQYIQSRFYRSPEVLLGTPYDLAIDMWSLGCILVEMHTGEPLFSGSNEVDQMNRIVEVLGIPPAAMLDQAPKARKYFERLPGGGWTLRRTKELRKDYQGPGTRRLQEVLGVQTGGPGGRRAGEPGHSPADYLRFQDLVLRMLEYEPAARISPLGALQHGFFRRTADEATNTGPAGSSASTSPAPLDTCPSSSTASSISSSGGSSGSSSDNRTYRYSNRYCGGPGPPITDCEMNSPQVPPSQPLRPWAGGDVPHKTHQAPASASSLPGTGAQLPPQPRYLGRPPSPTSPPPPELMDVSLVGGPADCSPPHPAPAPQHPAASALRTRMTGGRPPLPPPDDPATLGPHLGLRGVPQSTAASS
Sequence of Melanocortin receptor 4 (P32245 whole entry): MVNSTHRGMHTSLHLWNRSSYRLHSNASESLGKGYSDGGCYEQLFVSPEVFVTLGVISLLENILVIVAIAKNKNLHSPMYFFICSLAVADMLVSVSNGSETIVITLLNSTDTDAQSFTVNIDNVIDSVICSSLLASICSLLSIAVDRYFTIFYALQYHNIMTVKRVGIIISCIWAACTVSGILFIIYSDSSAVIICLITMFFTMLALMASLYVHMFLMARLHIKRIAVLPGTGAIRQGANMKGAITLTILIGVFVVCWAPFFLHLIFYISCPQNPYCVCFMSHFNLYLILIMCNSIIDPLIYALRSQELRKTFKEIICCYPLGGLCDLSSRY
Sequence of Mitogen-activated protein kinase 8 (P45983 whole entry): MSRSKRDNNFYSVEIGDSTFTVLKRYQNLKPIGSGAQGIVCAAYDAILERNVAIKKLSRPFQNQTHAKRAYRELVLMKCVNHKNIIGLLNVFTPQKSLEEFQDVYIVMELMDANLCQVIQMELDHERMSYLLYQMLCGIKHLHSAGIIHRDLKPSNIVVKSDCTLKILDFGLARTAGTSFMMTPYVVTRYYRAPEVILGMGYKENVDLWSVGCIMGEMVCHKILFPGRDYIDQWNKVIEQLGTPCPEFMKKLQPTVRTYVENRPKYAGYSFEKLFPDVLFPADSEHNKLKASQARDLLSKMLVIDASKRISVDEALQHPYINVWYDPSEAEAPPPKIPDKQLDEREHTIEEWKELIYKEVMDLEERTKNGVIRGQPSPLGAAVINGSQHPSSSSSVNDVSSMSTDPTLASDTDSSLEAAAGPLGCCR

COc1ccc(-n2nnnc2S(=O)(=O)CC(=O)N2CCCCC2)cc1
AC50 [1]: 7.53 µM (active)
AC50 [2]: 13 µM (active)
CC50 [3]: 11.3 µM (active)
AC50 [4]: 8.89 µM (active)
AC50 [5]: 5.44 µM (active)
AC50 [6]: 7.63 µM (active)
AC50 [7]: 16.8 µM (active)
AC50 [8]: 13.6 µM (active)
IC50 [9]: > 64.5 µM (inactive)
EC50 [10]: 10.6 µM (active)
IC50 [11]: > 80 µM (inactive)
EC50 [12]: 10.9 µM (active)
IC50 (Melanocortin receptor 4): > 64.5 µM (inactive)
AC50 [13]: 3.45 µM (active)

COc1cccc(-c2sc3ccc(OC)cc3c2-c2ccc(OCCN3CCCCC3)cc2)c1
EC50 [14]: 11.2 µM (active)

C[n+]1cccc(C(=O)Nc2ccccc2)c1
IC50 [15]: 1.1 µM (active)
IC50 [16]: 6.95 µM (active)
IC50 [17]: 5.96 µM (active)
IC50 [18]: 12.8 µM (inactive)
IC50 [19]: 28.6 µM (inactive)
IC50 [20]: 2.75 µM (active)

O=C(c1cc(C2CC2)on1)N(CC1CCCCC1)C1CCCCC1
EC50 [21]: > 50 µM (inactive)
EC50 [22]: > 50 µM (inactive)

O=c1[nH]ccc2cnc(-c3ccccc3)n12
Ki [23]: 79.4 µM (active)
Ki [24]: 25.1 µM (active)
Ki [25]: 63.1 µM (active)
Ki [26]: 39.8 µM (active)
